These results are taken from patent US20150252048A1, “SUBSTITUTED N-(3-PYRIMIDIN-4-YL)PHENYL)ACRYLAMIDE ANALOGS AS TYROSINE RECEPTOR KINASE BTK INHIBITORS” (UNIVERSITY OF UTAH RESEARCH FOUNDATION, priority 2012, published 2015).

Data set [1] can be described thus: Microsomal stability. In kind it is in vitro ADME, human. The conditions noted are these: for Compound Remaining: human microsomes 0.5 mg protein/mL, 1 μM. Here is the method:
(§1) Data were also obtained for the stability of Compound 3 when incubated with a microsomal preparation. Drug metabolism can occur, at least in part, in cellular microsomes, and thus the assay assesses the stability of drug to metabolic modification. The concentration of compound 3 was 1 μM in the assay system and the indicated microsomes were present at 0.5 mg total protein per milliliter. The concentration of intact drug was determined at the indicated timepoints using a LC-MS/MS assay. The enzyme activity of the microsomes used in this study were assessed using a positive control, testosterone.

Data set [2] addresses T1, recombinant full-length human BTK kinase (Homo sapiens, UniProt Q06187).
T1 construct: recombinant full-length human BTK kinase with a (His)6 tag; (His)6; purchased Invitrogen Corporation, Carlsbad, Calif
In words: BTK kinase assay: ADP generation assay (ADP-Glo). It is filed as biochemical. The conditions noted are these: 60 nM BTK, MBP substrate, 60 min. Here is the method:
The primary assay for compound inhibitory activity was the ADP generation assay described herein. Test compounds were diluted to desired concentrations in kinase reaction buffer and briefly incubated with recombinant full-length human BTK kinase with a (His)6 tag (81.3 kDa; Invitrogen Corporation, Carlsbad, Calif.). The assay as described is based on volumes used in a standard 384 well format using solid, white-wall plates. The reaction was subsequently initiated by the addition of ATP and myelin basic protein (MBP) substrate (Millipore Corporation, Waltham, Mass.). Composition of the assay reaction mixture ([…]) was: 5% v/v DMSO, 60 nM BTK, 1.6 µM ATP, and 20 µM MBP substrate. After incubation at room temperature for 60 min, […] (Promega Corporation, Madison, Wis.) was added to each well and incubated for an additional 40 minutes. The reagent stopped the kinase reaction and depleted the unconsumed ATP. Kinase Detection reagent ([…]; Promega Corporation) was then added to each well. The Kinase Detection reagent comprises reagents to convert ADP to ATP and provide luciferase and luciferin to detect ATP. Luminescence was measured on an EnVision microplate reader (PerkinElmer). The amount of luminescence from each reaction is directly correlated with BTK kinase activity. Percent inhibition and IC50 values were calculated by comparing enzyme activity in drug-treated wells to the appropriate controls.
IC50 values are determined using GraphPad Prism 5 software. The data were entered as an X-Y plot into the software as percent inhibition for each concentration of the drug. The concentration values of the drug were log transformed and the nonlinear regression was carried out using the “sigmoidal dose-response (variable slope)” option within the GraphPad software to model the data and calculate IC50 values. The IC50 values reported are the concentration of drug at which 50% inhibition was reached.
Activity (IC50) was determined in the BTK assays describe herein below, i.e. either the ADP generation assay and/or the time-resolved FRET assay, and the data are shown in Table III. The compound number corresponds to the compound numbers used in Table I. In the table below, “ADP Assay” refers to the assay which measures production of ADP resulting from use of ATP by the kinase; and “HTRF Assay” refers to the time resolved-FRET kinase assay described in the examples. Multiple values in a given column indicate the results of more than one assay for the given compound. Representative data of the type used to determine the IC50 values for the ADP assay in Table III are shown in FIG. 8 for compounds 3, 4, and 5.
On the technique in general: In ADP-Glo the light output rises with the ADP produced.

Data set [3] is described as follows: Caco-2 bidirectional permeability assay. It is filed as in vitro ADME. Conditions: human. Here is the method:
(§2) Cell membrane permeability is an important drug characteristic. Typically, a drug candidate is test in a Caco-2 cell transmembrane permeability assay. Compound 3 was tested in a bidirectional permeability assay, and the results are shown in Table V. The data are consistent with the representative compound having good cellular membrane permeability, and the efflux ratio is consistent with active efflux of the drug from cell. The study was conducted using standard techniques known in the art.
(In general: Passage across Caco-2 layers is used to estimate intestinal permeability.)

The test system of the next data set is Caco-2 cell. In words: Caco-2 bidirectional permeability assay. Conditions: Caco-2. It is filed as in vitro ADME. Here is the method: as §2
Data set [4] can be described thus: Microsomal stability. It is filed as in vitro ADME, mouse. The conditions noted are these: for Compound Remaining: mouse microsomes 0.5 mg protein/mL, 1 μM; for half-life at 1 μM: mouse, microsomes. Here is the method:
as §1

The target of another data set is T2, HERG channel (Homo sapiens, UniProt Q12809).
T2 construct: purchased Invitrogen; host or cells: membrane preparation with overexpressed HERG channels
T2 sequence (Q12809 whole entry): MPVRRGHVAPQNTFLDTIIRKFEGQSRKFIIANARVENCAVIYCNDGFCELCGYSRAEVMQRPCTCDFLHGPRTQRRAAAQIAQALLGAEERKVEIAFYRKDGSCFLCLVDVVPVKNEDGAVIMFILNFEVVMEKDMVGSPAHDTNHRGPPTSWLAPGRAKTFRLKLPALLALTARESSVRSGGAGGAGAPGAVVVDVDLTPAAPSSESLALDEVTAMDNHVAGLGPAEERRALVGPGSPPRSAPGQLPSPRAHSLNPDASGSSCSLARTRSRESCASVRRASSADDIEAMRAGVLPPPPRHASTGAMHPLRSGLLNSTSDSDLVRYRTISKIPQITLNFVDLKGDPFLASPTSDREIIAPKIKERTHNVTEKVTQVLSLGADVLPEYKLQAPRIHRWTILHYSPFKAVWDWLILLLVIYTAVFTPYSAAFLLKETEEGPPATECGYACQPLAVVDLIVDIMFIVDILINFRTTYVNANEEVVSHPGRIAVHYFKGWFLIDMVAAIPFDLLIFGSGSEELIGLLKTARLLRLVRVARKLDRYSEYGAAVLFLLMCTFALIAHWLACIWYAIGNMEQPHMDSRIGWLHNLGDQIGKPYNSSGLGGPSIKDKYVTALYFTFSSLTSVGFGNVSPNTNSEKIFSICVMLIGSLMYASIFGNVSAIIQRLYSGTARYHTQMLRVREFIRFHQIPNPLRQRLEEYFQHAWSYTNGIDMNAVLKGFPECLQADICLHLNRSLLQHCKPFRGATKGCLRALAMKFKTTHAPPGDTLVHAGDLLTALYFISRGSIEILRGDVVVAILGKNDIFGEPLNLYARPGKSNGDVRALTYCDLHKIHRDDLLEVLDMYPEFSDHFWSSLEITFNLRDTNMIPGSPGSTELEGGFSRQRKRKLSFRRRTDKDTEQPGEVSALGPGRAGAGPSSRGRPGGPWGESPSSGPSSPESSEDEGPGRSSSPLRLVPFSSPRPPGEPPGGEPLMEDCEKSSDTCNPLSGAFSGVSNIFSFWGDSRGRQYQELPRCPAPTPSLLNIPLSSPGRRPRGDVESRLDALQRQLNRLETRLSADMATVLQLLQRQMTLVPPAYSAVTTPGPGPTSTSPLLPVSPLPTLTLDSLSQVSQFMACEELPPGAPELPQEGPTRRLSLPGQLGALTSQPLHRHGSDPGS
In words: Predictor hERG Fluorescence Polarization Assay. It is filed as binding. The conditions noted are these: membrane preparation with overexpressed HERG channels, 10-point, duplicate. How it is done: The activity of a representative disclosed compound, compound 3 (N-(3-(6-((3-morpholinophenyl)amino)-1H-pyrazolo[3,4-d]pyrimidin-4-yl)phenyl)acrylamide), was evaluated in a HERG channel assay. Briefly, the compounds were assessed using the Invitrogen Predictor™ hERG Fluorescence Polarization Assay with excitation at 530 nm and emission at 580 nm using a membrane preparation with overexpressed HERG channels. The compound was tested in a 10-point dose response curves in duplicate and using E-4031 (N-[4-[[1-[2-(6-Methyl-2-pyridinyl)ethyl]-4-piperidinyl]carbonyl]phenyl]methanesulfonamide dihydrochloride), a known HERG channel inhibitor, as an assay positive control. The data are shown in FIG. 6, and the figure showns the average inhibition versus the compound.

Molecules are shown by their SMILES. Where “and” joins values, the source holds several entries; their conditions need not be identical. Identical values can stand only once. Like-named read-outs stand apart in the source and are kept apart here.

T1 sequence (Q06187 whole entry): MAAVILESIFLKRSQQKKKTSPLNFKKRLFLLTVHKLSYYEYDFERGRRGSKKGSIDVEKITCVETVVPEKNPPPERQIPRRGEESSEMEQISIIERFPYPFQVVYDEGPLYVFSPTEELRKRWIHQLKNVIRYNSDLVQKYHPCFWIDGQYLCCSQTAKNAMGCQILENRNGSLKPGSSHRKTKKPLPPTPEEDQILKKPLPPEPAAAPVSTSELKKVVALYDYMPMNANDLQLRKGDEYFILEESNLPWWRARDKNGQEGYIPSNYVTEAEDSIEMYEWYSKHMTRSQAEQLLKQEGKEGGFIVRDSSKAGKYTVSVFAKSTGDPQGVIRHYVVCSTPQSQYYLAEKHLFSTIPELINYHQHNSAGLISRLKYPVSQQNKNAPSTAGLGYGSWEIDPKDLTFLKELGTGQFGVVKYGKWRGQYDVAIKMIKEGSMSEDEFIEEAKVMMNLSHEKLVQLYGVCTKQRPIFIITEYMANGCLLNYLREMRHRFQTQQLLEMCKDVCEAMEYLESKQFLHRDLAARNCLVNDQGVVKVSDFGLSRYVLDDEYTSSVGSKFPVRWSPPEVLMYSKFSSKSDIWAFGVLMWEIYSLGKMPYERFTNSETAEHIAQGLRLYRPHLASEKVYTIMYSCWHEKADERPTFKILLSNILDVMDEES

`C=CC(=O)Nc1cccc(-c2nc(Nc3cccc(N4CCOCC4)c3)nc3[nH]ncc23)c1` [Compound 3, N-(3-(6-((3-morpholinophenyl)amino)-1H-pyrazolo[3,4-d]pyrimidin-4-yl)phenyl)acrylamide]: the half-life at 1 μM in “Microsomal stability [1]” (human microsomes) is 16 min; in the data set “Microsomal stability [4]” (mouse microsomes, expressed as < shortest incubation time, read-out: t1/2) it was less than 10 min; in the data set “Microsomal stability [4]” (mouse microsomes, read-out: t1/2, calculated half-life in parentheses), 8.6 min. Also, the “Compound Remaining” value in the data set “Microsomal stability [1]” (0 min) was 100 % of initial amount; in the data set “Microsomal stability [1]” (10 min) it was 61.1 % of initial amount; in “Microsomal stability [1]” (20 min), 36.0 % of initial amount; in “Microsomal stability [1]” (30 min), 20.4 % of initial amount; in “Microsomal stability [1]” (60 min) it was 7.89 % of initial amount; in “Microsomal stability [4]” (0 min), 100 % of initial amount. The “Compound Remaining” value is 24.3 % of initial amount in the data set “Microsomal stability [4]” (10 min), 6.12 % of initial amount in the data set “Microsomal stability [4]” (20 min), 1.62 % of initial amount in the data set “Microsomal stability [4]” (30 min) and 0.72 % of initial amount in the data set “Microsomal stability [4]” (60 min). Moreover, the microsomal CLint at 1 μM in “Microsomal stability [1]” (human microsomes, read-out: CLinit (intrinsic clearance)) amounted to 85 µL/min/mg; in the data set “Microsomal stability [4]” (mouse microsomes, read-out: CLinit (intrinsic clearance)), 160 µL/min/mg. Moreover, the IC50 in data set [2] was 5 nM and 6 nM and 8 nM; on HERG channel, more than 10000 nM. Further, the efflux ratio in data set [3] (Caco-2) was determined as 6. The recovery in data set [3] (Caco-2, Caco-2, A-B, read-out: % Recovery A-B) was 41%; in data set [3] (Caco-2, Caco-2, B-A, read-out: % Recovery B-A), 84%. In data set [3] (Caco-2, A-B), the Papp A→B was found to be 5.81 ×10⁻⁶ cm/s. The compound also had a Papp B→A in data set [3] (Caco-2, B-A) of 34.9 ×10⁻⁶ cm/s. The “Permeability Classification” value in the data set on Caco-2 cell is “High”. For the same compound, the “Significant Efflux” value in the data set with Caco-2 cell was “Yes”.

As a reminder, the IC50 is the concentration that gives 50% inhibition. By efflux ratio is commonly meant the permeability from basolateral to apical divided by that in the opposite direction, in the common usage. Usually Papp A→B stands for the apparent permeability from the apical to the basolateral side of a cell layer. A word on the Papp B→A: it is how fast a substance crosses the layer from the basolateral side.
